Results published in PubChem BioAssay AID2060606 (Molecular Pharmacology Branch, DTP, NCI, 2025).

Test system: 922993-354-T-J3-PDC complex spheroids, viability, % test/control
Experiment: Anticancer human tumor 922993-354-T-J3-PDC patient-derived endometrial carcinoma cell line growth inhibition [CLK]
Details: for IC50: curve of first compound; for viability, T/C: stronger effect = lower value; active = viability on the fitted dose curve at most 10% of control; inactive = the rest
Excerpt: A high-throughput screen of multi-cell type tumor spheroids was designed to identify active combinations of […] and targeted small molecules. Complex spheroids include a stromal component modeled by human endothelial cells (HUVEC) and fibroblasts modeled by human mesenchymal stem cells (MSCs). The concentration ranges selected for each drug and investigational agent were based upon clinically achievable concentrations if the clinical Cmax of the agent was known.
Compounds. The drugs and investigational agents: cirtuvivint (SM08502; NSC835563), CC-671 (NSC850746), vemurafenib (NSC761431), tapotoclax (NSC804041), sotorasib (NSC818433), adagrasib (NSC831453), MRTX-1133 (NSC836407), BAY2416964 (NSC825713), copanlisib (NSC816437), inavolisib (NSC800729), abemaciclib (NSC768073), osimertinib (NSC779217), entinostat (NSC756642), eltanexor (KPT-8602, NSC794443), venetoclax (NSC766270), ceralasertib (NSC777638), bortezomib (NSC756655), olaparib (NSC753686), talazoparib (NSC767125), alisertib (NSC759677), peposertib (NSC802822), gemcitabine (NSC613327), 5-fluorouracil (NSC19893), SN-38 (NSC673596), oxaliplatin (NSC266046), paclitaxel (NSC125973), and doxorubicin (NSC123127), were obtained from the National Cancer Institute (NCI) Developmental Therapeutics Program Chemical Repository. The FDA-approved anticancer drug set is available from the Developmental Therapeutics Program at https://dtp.cancer.gov/organization/dscb/obtaining/available plates.htm. […] The stock solutions were prepared in dimethyl sulfoxide (DMSO, Sigma-Aldrich, St. Louis, MO, cat. D2650), except for the platinum complexes which were prepared in saline (Quality Biological, Gaithersburg, MD, cat. 114-055-101), at 800-fold the tested concentration and stored at -70 degrees C prior to their use. All drugs and investigational agents were tested over a range starting from a high concentration at or near the clinical Cmax and decreasing in half-log increments. If the clinical Cmax for an agent had not been determined, the highest concentration tested was 10 microM.
Cell Culture. All cells were maintained in an incubator at 37 degrees C and 5% CO2 with 95% humidity. The PDC lines were cultured according to standard operating procedures established by the NCI PDMR. Briefly, all PDCs were thawed and cultured in Matrigel-coated flasks prepared with a working solution of 1X Ham's F-12 nutrient mix, without supplementation (Invitrogen, Waltham, MA, cat. 11765054), 100 U/mL penicillin-streptomycin (Invitrogen, cat. 15140122), and 2.5% Matrigel (Corning Inc., Corning, NY, cat. 354248) for the first three passages. The 947758-054-R-J2-PDC line was cultured in 6B/Colon 1A media, which includes advanced DMEM/F-12 (Thermo Fisher Scientific, cat. 12634028), 10 mM HEPES (Thermo Fisher Scientific, cat. 15630080), 1X GlutaMAX supplement (Thermo Fisher Scientific, cat. 35050061), 0.1 mg/mL primocin (InvivoGen, cat. ant-pm-2), 10% defined fetal bovine serum, heat inactivated (HyClone Laboratories Inc., cat. SH30070.03HI), 1.25 mM N-Acetyl-L-cysteine (Sigma-Aldrich, cat. A9165), 10 mM nicotinamide (Sigma-Aldrich, cat. N0636), 1X B-27 supplement (Thermo Fisher Scientific, cat. 17504044), 1X N-2 supplement (Thermo Fisher Scientific, cat. 17502048), and 10 microM Y-27632 dihydrochloride (Tocris Bioscience, cat. 1254). The 876862-298-R-J1-PDC was cultured in 6E media, which includes all 6B/Colon 1A media components plus 50% L-WRN conditioned media (ATCC, cat. CRL-3276), 50 ng/mL recombinant human EGF recombinant protein (hEGF; Thermo Fisher Scientific, cat. PHG0311), 10 ng/mL recombinant human fibroblast growth factor 10 (hGFG-10; PeproTech, cat. 100-26), 1 ng/mL recombinant human fibroblast growth factor 2 (hFGF-2; PeproTech, cat. 100-18B), and 1 µM prostaglandin E2 (PGE2; Tocris, cat. 2296). The 227483-062-R1-J1-PDC line was cultured in Panc media, containing all 6E components except hFGF-2, with the addition of 500 nM SB-431542 (Selleckchem, cat. S1067) and 10 nM gastrin (Tocris, cat. 3006). […]

[1] = second compound 0.0316 µM, first compound 0.0316 µM
[2] = second compound 0.0316 µM, first compound 0.1 µM
[3] = second compound 0.0316 µM, first compound 0.316 µM
[4] = second compound 0.0316 µM, first compound 1 µM
[5] = second compound 0.0316 µM, first compound 3.16 µM
[6] = second compound 0.0316 µM, first compound 10 µM
[7] = second compound 0.1 µM, first compound 0.0316 µM
[8] = second compound 0.1 µM, first compound 0.1 µM
[9] = second compound 0.1 µM, first compound 0.316 µM
[10] = second compound 0.1 µM, first compound 1 µM
[11] = second compound 0.1 µM, first compound 3.16 µM
[12] = second compound 0.1 µM, first compound 10 µM
[13] = second compound 0.316 µM, first compound 0.0316 µM
[14] = second compound 0.316 µM, first compound 0.1 µM
[15] = second compound 0.316 µM, first compound 0.316 µM
[16] = second compound 0.316 µM, first compound 1 µM
[17] = second compound 0.316 µM, first compound 3.16 µM
[18] = second compound 0.316 µM, first compound 10 µM
[19] = second compound 1 µM, first compound 0.0316 µM
[20] = second compound 1 µM, first compound 0.1 µM
[21] = second compound 1 µM, first compound 0.316 µM
[22] = second compound 1 µM, first compound 1 µM
[23] = second compound 1 µM, first compound 3.16 µM
[24] = second compound 1 µM, first compound 10 µM
[25] = second compound 3.16 µM, first compound 0.0316 µM
[26] = second compound 3.16 µM, first compound 0.1 µM
[27] = second compound 3.16 µM, first compound 0.316 µM
[28] = second compound 3.16 µM, first compound 1 µM
[29] = second compound 3.16 µM, first compound 3.16 µM
[30] = second compound 3.16 µM, first compound 10 µM
[31] = second compound 10 µM, first compound 0.0316 µM
[32] = second compound 10 µM, first compound 0.1 µM
[33] = second compound 10 µM, first compound 0.316 µM
[34] = second compound 10 µM, first compound 1 µM
[35] = second compound 10 µM, first compound 3.16 µM
[36] = second compound 10 µM, first compound 10 µM
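Also: spheroids exposed to the agents for 7 days before readout.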

C#Cc1c(F)ccc2cc(O)cc(-c3ncc4c(N5CC6CCC(C5)N6)nc(OCC56CCCN5CC(F)C6)nc4c3F)c12 (stereo unspecified) + CN1CCN(c2cc(C(=O)Nc3cc4cc(-c5cnn(C)c5)ccc4cn3)ccn2)CC1
< 31.6 nM: IC50 (second compound 1 µM) | IC50 (second compound 3.16 µM) | IC50 (second compound 10 µM)
56.8 nM: IC50 (second compound 0.316 µM)
> 10000 nM: IC50 (second compound 0.0316 µM) | IC50 (second compound 0.1 µM)
inactive: viability, T/C [1] 123% | viability, T/C [2] 113% | viability, T/C [3] 122% | viability, T/C [4] 107% | viability, T/C [5] 111% | viability, T/C [6] 93.3% | viability, T/C [7] 99.5% | viability, T/C [8] 105% | viability, T/C [9] 91.9% | viability, T/C [10] 92.4% | viability, T/C [11] 103% | viability, T/C [12] 88% | viability, T/C [13] 57% | viability, T/C [14] 47.9% | viability, T/C [15] 38.6% | viability, T/C [16] 42.1% | viability, T/C [17] 41.4% | viability, T/C [18] 41.3%
active: viability, T/C [19] 0.17% | viability, T/C [20] 0.42% | viability, T/C [21] 1.47% | viability, T/C [22] 0.44% | viability, T/C [23] 0.92% | viability, T/C [24] 0.14% | viability, T/C [25] 0.14% | viability, T/C [26] 0.2% | viability, T/C [27] 0.11% | viability, T/C [28] 0.11% | viability, T/C [29] 2.16% | viability, T/C [30] 2.87% | viability, T/C [31] 0.88% | viability, T/C [32] 0.85% | viability, T/C [33] 1.6% | viability, T/C [34] 0.15% | viability, T/C [35] 2.52% | viability, T/C [36] 3.71%

C=C(F)C(=O)N1CCN(c2nc(OCC3CCCN3C)nc3c2CCN(c2cccc4cccc(Cl)c24)C3)CC1CC#N (stereo unspecified) + CN1CCN(c2cc(C(=O)Nc3cc4cc(-c5cnn(C)c5)ccc4cn3)ccn2)CC1
5380 nM: IC50 (second compound 0.0316 µM)
< 31.6 nM: IC50 (second compound 0.316 µM) | IC50 (second compound 1 µM) | IC50 (second compound 3.16 µM) | IC50 (second compound 10 µM)
5610 nM: IC50 (second compound 0.1 µM)
inactive: viability, T/C [1] 121% | viability, T/C [2] 103% | viability, T/C [3] 118% | viability, T/C [4] 101% | viability, T/C [5] 94% | viability, T/C [7] 106% | viability, T/C [8] 95.9% | viability, T/C [9] 92.6% | viability, T/C [10] 87% | viability, T/C [11] 110% | viability, T/C [13] 50.1% | viability, T/C [14] 51.6% | viability, T/C [15] 36.4% | viability, T/C [16] 41.5% | viability, T/C [17] 45.6%
active: viability, T/C [6] 1.08% | viability, T/C [12] 1.37% | viability, T/C [18] 0.87% | viability, T/C [19] 0.79% | viability, T/C [20] 0.16% | viability, T/C [21] 0.83% | viability, T/C [22] 0.12% | viability, T/C [23] 0.11% | viability, T/C [24] 1.63% | viability, T/C [25] 0.14% | viability, T/C [26] 0.63% | viability, T/C [27] 0.92% | viability, T/C [28] 0.12% | viability, T/C [29] 0.11% | viability, T/C [30] 1.67% | viability, T/C [31] 0.19% | viability, T/C [32] 0.18% | viability, T/C [33] 0.88% | viability, T/C [34] 0.29% | viability, T/C [35] 0.19% | viability, T/C [36] 0.93%

CC(CO)NC(=O)c1cc(-c2ccc(Cl)cc2)nn(-c2cnn(C)c2)c1=O (stereo unspecified) + CN1CCN(c2cc(C(=O)Nc3cc4cc(-c5cnn(C)c5)ccc4cn3)ccn2)CC1
inactive: viability, T/C [1] 119% | viability, T/C [2] 98.2% | viability, T/C [3] 93.1% | viability, T/C [4] 98% | viability, T/C [5] 84.8% | viability, T/C [6] 96% | viability, T/C [7] 95.2% | viability, T/C [8] 77.1% | viability, T/C [9] 80.8% | viability, T/C [10] 69.5% | viability, T/C [11] 77.2% | viability, T/C [12] 72.1% | viability, T/C [13] 47.6% | viability, T/C [14] 49.6% | viability, T/C [15] 40% | viability, T/C [16] 33.6% | viability, T/C [17] 35.3% | viability, T/C [18] 35.9%
active: viability, T/C [19] 0.14% | viability, T/C [20] 0.16% | viability, T/C [21] 0.16% | viability, T/C [22] 0.12% | viability, T/C [23] 0.98% | viability, T/C [24] 1.3% | viability, T/C [25] 0.15% | viability, T/C [26] 0.63% | viability, T/C [27] 0.87% | viability, T/C [28] 1.29% | viability, T/C [29] 1.41% | viability, T/C [30] 0.14% | viability, T/C [31] 0.2% | viability, T/C [32] 0.21% | viability, T/C [33] 2% | viability, T/C [34] 0.26% | viability, T/C [35] 0.7% | viability, T/C [36] 1.23%
> 10000 nM: IC50 (second compound 0.0316 µM) | IC50 (second compound 0.1 µM)
< 31.6 nM: IC50 (second compound 0.316 µM) | IC50 (second compound 1 µM) | IC50 (second compound 3.16 µM) | IC50 (second compound 10 µM)
